Data set [1] has as its target Glucose-6-phosphate 1-dehydrogenase (Homo sapiens, UniProt P11413). Description: human G6PD enzyme inhibitors, dose response, selectivity assay for P. falciparum G6PD inhibitor project, biochemical, fluorescence (AID 504792). The class given is functional.
Data set [2] addresses 5-hydroxytryptamine receptor 2A (Mus musculus, UniProt P35363). The class given is functional, cell-based.
The target of data set [3] is T1, Zinc finger protein mex-5 (Caenorhabditis elegans, UniProt Q9XUB2).
T1 sequence (Q9XUB2 whole entry): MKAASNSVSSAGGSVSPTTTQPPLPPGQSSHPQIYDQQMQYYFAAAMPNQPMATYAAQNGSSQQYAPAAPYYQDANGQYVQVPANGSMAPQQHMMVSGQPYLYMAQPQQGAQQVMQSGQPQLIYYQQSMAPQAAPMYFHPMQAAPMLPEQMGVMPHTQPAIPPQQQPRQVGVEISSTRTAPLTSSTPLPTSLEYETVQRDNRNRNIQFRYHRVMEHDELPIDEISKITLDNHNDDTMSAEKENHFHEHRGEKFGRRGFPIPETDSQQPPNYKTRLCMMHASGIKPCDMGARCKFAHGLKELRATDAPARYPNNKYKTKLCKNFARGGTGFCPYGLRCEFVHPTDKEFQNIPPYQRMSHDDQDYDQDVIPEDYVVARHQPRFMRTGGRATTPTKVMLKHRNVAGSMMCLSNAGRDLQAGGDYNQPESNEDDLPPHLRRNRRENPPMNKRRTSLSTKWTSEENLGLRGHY
Put plainly: MEX-5/TCR-2 RNA interaction inhibitors, dose response, biochemical, C. elegans, fluorescence polarization (AID 1960).

In another data set the target is Mu-type opioid receptor (Homo sapiens, UniProt P35372). The class given is functional, cell-based.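 Further: U2OS cells with beta-arrestin recruitment to OPRM1 by beta-gal complementation.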
Sequence of Mu-type opioid receptor (P35372 whole entry): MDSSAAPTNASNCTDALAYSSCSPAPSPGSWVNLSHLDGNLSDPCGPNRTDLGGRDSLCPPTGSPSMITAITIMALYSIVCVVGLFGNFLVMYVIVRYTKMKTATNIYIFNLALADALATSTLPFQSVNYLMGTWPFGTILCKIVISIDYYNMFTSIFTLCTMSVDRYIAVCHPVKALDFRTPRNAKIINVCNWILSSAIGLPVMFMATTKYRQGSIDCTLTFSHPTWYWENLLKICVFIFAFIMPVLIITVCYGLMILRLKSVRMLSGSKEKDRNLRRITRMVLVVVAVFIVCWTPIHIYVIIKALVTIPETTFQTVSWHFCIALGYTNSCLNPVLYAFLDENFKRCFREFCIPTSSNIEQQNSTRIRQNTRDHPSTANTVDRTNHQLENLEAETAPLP
Data set [4] is described as follows: HEp-2 cell cytotoxicity, dose response, cytotoxicity control for RSV inhibitor project, HTS (AID 2410). The class given is functional. As to conditions: human respiratory syncytial virus.
The target in a further data set is Large T antigen (Simian virus 40, UniProt P03070). The class given is functional, Betapolyomavirus macacae.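 Further: Confirmatory-stage PubChem screen for compounds that inhibit SV40 T antigen.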
Sequence of Large T antigen (P03070 whole entry): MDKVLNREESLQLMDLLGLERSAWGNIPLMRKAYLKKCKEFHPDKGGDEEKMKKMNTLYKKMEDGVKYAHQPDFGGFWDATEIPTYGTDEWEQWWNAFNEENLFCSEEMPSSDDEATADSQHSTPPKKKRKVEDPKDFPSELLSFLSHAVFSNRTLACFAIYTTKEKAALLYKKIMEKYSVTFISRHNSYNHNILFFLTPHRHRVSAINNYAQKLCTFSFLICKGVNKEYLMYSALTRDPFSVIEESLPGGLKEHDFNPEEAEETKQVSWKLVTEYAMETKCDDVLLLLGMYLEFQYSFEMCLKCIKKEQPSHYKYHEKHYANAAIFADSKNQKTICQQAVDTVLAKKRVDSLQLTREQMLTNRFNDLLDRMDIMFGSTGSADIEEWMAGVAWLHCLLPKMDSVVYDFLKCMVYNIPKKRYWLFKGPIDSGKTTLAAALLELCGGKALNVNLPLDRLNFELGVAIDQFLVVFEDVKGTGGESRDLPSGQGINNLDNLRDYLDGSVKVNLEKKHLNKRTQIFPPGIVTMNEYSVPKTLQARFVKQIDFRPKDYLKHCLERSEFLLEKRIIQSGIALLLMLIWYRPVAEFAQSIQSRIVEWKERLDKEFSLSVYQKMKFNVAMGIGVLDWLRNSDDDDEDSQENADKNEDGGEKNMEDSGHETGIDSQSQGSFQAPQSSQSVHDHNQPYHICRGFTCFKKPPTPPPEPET
Data set [5] concerns the target T2, RNA-binding protein pos-1 (Caenorhabditis elegans, UniProt G5EF15).
T2 sequence (G5EF15 whole entry): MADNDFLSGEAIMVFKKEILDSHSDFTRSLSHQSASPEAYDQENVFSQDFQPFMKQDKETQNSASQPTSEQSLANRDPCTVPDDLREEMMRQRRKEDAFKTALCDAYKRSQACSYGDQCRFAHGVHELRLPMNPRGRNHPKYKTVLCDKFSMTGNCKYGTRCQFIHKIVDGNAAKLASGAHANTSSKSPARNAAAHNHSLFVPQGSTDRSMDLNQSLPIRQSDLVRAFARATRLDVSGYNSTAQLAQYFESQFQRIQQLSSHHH
Description: inhibitors of POS-1/mex-3 RNA binding, dose response, biochemical, fluorescence polarization (AID 1964).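 Further: purified POS-1 fused to maltose binding protein made in E. coli; potency of compounds blocking POS-1 binding to fluorescent RNA.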

The target in data set [6] is T3, Corticotropin-releasing factor receptor 2/Corticotropin-releasing factor-binding protein (Homo sapiens, UniProt P24387+Q13324).
T3 sequence (Q13324 whole entry): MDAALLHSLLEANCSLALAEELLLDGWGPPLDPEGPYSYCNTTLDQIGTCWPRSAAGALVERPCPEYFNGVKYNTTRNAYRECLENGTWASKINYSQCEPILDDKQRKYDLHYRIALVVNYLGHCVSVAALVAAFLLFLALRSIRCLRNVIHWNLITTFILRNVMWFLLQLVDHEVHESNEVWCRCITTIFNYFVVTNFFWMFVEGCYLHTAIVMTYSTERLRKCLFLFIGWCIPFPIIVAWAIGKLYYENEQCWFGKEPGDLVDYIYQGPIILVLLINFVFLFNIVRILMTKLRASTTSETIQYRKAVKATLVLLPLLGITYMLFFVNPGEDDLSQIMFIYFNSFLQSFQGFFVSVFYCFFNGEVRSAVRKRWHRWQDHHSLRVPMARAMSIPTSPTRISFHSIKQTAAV
T3 sequence (P24387 whole entry): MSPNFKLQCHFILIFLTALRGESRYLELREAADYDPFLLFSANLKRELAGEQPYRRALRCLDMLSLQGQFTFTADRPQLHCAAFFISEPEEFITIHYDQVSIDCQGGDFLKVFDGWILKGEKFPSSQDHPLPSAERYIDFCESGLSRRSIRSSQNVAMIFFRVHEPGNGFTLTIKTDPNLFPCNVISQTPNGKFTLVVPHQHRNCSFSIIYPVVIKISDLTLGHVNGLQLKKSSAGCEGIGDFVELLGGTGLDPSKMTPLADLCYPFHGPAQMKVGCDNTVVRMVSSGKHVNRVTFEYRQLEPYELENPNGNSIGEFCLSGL
Put plainly: Dose Response confirmation of uHTS hits for small molecule antagonists of the CRF-binding protein and CRF-R2 receptor complex. The class given is functional. As to conditions: read-out: IC50_Mean.

Another data set addresses Beta-galactosidase (Escherichia coli, UniProt Q8VNN2). Description: Dose response counterscreen for EBI2 assay utilizing the enzyme, b-galactosidase. The class given is functional.
For data set [7], the target named is T3, Corticotropin-releasing factor receptor 2/Corticotropin-releasing factor-binding protein. Put plainly: activators of CRF receptor 2 with binding protein – uHTS hits, confirmation (AID 602473). The class given is functional. As to conditions: read-out: EC50_Mean.
The target in the next data set is T4, Protein RecA (Mycobacterium tuberculosis, UniProt P9WHJ3).
T4 sequence (P9WHJ3 whole entry): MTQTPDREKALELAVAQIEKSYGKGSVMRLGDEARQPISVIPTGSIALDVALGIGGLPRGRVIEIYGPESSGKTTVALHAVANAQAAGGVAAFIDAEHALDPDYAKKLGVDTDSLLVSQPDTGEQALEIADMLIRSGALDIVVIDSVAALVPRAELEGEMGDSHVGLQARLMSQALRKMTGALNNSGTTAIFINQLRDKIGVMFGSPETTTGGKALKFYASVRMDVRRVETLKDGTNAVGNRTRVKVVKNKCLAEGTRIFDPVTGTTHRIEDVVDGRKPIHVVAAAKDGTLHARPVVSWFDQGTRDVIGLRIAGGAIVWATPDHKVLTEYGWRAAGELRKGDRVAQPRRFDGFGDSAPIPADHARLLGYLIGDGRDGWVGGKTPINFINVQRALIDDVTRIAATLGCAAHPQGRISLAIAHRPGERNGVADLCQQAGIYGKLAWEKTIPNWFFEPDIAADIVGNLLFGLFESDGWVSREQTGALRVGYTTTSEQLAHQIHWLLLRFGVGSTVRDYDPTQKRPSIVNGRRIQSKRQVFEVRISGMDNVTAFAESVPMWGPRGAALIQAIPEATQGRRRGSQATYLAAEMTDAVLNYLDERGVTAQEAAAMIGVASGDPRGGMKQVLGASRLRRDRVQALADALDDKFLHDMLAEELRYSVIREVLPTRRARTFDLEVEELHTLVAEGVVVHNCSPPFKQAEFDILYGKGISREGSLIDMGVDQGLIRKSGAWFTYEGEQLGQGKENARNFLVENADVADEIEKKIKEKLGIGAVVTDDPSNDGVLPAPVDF
Put plainly: Fluorescence Cell-Free Homogeneous Dose Retest to Identify Inhibitors of RecA-Intein Splicing Activity. [Related pubchem assays (depositor defined):AID2097, AID2223, AID489010, AID492950]. The class given is functional.

Data set [8] deals with T5, Replicative DNA helicase DnaB (Mycobacterium tuberculosis, UniProt P9WMR3).
T5 sequence (P9WMR3 whole entry): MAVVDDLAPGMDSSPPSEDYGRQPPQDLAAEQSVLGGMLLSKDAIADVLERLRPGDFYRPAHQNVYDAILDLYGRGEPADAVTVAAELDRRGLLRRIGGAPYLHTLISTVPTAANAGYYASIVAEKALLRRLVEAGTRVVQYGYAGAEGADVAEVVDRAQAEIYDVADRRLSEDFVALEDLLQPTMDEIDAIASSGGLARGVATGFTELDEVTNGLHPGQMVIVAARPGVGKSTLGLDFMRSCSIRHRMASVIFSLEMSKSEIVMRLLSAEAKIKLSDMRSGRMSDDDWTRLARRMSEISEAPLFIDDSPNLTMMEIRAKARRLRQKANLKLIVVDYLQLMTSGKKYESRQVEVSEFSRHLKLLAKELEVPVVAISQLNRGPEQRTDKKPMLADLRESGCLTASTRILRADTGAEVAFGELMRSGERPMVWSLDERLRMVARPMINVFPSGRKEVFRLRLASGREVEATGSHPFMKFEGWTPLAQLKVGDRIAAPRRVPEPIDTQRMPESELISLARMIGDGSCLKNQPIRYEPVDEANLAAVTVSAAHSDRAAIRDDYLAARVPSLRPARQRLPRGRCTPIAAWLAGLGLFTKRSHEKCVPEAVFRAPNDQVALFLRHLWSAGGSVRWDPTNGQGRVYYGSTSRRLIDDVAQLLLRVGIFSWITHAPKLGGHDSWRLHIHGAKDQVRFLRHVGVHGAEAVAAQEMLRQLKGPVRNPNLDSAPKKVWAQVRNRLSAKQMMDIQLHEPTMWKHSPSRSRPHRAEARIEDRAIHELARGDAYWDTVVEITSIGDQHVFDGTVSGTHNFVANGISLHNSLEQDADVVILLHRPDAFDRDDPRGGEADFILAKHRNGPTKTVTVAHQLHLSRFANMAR
Put plainly: DnaB intein splicing inhibitors, dose response, biochemical, cell-free fluorescence (AID 449749). The class given is functional.

The target in a further data set is T6, Cytochrome P450 1A2 (Homo sapiens, UniProt P05177).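 Further: PubChem cytochrome P450 panel assay, CYP1A2 panel member.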
T6 sequence (P05177 whole entry): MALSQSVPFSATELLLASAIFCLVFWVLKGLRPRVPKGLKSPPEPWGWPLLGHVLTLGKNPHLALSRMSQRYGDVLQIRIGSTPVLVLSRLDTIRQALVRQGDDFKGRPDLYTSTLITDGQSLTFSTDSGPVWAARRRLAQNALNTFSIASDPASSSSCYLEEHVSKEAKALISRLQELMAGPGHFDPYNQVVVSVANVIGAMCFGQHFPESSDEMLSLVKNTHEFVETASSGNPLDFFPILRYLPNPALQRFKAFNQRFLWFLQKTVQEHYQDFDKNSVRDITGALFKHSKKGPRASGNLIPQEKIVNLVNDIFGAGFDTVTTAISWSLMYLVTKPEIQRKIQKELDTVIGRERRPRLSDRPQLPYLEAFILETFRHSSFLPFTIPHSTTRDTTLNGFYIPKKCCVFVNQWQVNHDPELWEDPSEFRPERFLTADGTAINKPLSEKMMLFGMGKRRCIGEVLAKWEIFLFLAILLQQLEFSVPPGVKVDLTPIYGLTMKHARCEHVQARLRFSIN

The next data set concerns the target Cytochrome P450 2D6 (Homo sapiens, UniProt P10635).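 Further: CYP2D6 member of a cytochrome P450 panel assay.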
Another data set has as its target Cytochrome P450 2C9 (Homo sapiens, UniProt P11712).
Another data set addresses Cytochrome P450 2C19 (Homo sapiens, UniProt P33261). Put plainly: Cytochrome panel assay with activity outcomes. Panel member name: p450-cyp2c19 Compounds with AC50 equal or less than 10 uM are considered active. The class given is functional.

SMILES strings stand for the structures. Activity calls are given as the source filed them.

Sequence of 5-hydroxytryptamine receptor 2A (P35363 whole entry): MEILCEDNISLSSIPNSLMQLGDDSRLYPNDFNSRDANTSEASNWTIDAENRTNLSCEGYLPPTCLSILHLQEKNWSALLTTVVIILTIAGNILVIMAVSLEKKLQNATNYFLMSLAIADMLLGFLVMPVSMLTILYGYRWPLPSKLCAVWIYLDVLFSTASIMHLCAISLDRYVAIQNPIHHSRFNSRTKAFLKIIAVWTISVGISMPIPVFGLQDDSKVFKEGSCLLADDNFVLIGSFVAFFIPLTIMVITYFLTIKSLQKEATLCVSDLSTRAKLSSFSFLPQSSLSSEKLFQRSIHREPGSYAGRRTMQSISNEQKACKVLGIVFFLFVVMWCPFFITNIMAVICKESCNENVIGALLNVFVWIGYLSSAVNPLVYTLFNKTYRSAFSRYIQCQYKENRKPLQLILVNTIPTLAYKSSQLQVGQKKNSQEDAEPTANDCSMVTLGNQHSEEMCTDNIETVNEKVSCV
Sequence of Beta-galactosidase (Q8VNN2 whole entry): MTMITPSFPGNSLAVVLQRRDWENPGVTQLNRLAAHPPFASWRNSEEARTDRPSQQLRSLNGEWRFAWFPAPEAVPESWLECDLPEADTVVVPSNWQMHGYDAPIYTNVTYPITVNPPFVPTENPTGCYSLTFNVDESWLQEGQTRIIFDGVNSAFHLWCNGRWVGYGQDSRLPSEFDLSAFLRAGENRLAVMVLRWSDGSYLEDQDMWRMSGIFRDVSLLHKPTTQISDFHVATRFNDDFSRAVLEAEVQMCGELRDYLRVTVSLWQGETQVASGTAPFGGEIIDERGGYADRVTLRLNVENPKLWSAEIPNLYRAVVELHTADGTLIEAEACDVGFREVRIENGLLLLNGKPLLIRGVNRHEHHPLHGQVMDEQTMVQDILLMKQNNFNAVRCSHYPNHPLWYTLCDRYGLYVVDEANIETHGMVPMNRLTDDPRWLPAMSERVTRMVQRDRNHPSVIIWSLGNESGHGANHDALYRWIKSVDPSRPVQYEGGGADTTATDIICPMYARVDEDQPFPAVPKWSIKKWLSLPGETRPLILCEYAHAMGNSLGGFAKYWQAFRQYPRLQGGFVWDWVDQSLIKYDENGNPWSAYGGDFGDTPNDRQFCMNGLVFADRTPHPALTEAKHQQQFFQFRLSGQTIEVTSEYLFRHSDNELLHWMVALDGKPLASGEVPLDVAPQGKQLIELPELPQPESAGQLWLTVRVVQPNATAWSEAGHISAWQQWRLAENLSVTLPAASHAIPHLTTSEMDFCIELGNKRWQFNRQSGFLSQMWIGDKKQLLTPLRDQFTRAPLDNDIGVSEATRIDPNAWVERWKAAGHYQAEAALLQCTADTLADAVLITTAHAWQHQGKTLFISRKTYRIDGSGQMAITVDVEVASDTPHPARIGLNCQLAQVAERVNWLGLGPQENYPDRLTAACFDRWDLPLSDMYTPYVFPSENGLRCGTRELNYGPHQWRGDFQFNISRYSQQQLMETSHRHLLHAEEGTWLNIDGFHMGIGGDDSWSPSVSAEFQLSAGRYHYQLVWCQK
Sequence of Cytochrome P450 2C9 (P11712 whole entry): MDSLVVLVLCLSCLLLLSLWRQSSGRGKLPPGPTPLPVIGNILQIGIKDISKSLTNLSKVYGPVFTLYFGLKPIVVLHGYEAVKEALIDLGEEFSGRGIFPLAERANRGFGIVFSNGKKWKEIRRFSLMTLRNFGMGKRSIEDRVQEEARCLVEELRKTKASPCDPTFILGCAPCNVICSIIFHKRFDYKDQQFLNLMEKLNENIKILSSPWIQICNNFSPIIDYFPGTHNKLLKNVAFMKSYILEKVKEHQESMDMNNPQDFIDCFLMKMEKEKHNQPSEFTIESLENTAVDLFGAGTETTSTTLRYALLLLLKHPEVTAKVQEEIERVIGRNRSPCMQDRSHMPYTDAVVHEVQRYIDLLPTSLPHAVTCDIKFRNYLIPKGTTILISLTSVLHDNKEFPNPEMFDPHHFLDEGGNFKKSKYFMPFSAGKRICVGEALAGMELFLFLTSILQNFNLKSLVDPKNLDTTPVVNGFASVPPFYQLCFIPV
Sequence of Glucose-6-phosphate 1-dehydrogenase (P11413 whole entry): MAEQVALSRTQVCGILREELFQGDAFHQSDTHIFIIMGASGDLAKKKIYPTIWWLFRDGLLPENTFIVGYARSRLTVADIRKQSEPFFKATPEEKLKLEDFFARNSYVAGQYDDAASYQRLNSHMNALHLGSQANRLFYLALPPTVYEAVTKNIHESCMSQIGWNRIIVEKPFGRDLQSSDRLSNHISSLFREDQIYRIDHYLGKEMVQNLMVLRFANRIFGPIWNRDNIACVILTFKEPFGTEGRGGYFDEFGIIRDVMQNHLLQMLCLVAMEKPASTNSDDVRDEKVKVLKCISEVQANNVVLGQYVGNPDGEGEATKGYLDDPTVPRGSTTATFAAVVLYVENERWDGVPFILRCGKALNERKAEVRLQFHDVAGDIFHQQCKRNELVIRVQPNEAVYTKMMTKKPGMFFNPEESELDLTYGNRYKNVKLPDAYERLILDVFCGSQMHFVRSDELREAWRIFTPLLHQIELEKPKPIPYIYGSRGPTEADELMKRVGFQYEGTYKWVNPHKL
Sequence of Cytochrome P450 2C19 (P33261 whole entry): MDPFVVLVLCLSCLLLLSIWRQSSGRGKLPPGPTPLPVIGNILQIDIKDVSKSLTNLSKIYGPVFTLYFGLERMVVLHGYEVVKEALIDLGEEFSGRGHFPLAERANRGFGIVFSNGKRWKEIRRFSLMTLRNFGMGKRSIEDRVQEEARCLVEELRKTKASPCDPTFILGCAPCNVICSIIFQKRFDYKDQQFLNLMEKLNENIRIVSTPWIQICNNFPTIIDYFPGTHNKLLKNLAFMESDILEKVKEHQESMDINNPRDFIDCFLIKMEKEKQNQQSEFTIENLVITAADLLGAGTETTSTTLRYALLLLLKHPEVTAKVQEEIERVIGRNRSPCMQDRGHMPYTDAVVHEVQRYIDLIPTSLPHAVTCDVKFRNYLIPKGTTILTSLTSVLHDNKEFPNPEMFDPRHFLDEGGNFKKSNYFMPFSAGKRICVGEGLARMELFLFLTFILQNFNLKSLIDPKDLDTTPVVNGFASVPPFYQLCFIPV
Sequence of Cytochrome P450 2D6 (P10635 whole entry): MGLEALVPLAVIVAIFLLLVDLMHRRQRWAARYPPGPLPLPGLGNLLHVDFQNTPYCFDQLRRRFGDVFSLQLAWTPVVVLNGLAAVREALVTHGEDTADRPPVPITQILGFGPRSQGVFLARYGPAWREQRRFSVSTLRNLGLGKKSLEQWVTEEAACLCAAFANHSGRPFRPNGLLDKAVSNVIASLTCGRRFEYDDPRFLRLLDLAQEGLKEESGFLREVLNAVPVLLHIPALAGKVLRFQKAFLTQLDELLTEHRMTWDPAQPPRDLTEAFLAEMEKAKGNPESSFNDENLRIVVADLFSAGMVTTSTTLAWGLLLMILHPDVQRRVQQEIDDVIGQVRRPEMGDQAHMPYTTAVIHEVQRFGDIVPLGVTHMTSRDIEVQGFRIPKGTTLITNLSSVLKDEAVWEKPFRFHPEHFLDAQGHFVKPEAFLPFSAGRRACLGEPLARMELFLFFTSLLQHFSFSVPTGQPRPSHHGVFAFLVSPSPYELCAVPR

As to `CN1CCc2cc(O)cc3c2[C@H]1Cc1ccc(O)c(O)c1-3`, the figures for the IC50 (in data set [1]; at Large T antigen) were 63 µM (inactive) and 9.43 µM (active), respectively. For the same compound, the EC50 in [2] is 0.0112 µM (active); in data set [3], 3.17 µM (active); at Mu-type opioid receptor it was 92.4 µM (inactive); in data set [5], 5.41 µM (active). Moreover, the CC50 in data set [4] is 16 µM (active).

For `CCC(C)c1ccc(NC(=S)Nc2ccc(OC)cc2)cc1` (configuration not stated), the values for the IC50 (in data set [6]; at Beta-galactosidase) were > 47.1 µM (inactive) and > 80 µM (inactive), respectively. For the same compound, in [7], the EC50 is > 53 µM (inactive).

For `COc1ccc(-c2cc(C(=O)N3CCN(C(c4ccccc4)c4ccccc4)CC3)no2)cc1`, at Beta-galactosidase, the IC50 was > 80 µM (inactive).

Consider `CC(C)C[C@H]1C(=O)N2CCC[C@H]2[C@]2(O)O[C@](NC(=O)[C@@H]3C=C4c5cccc6[nH]c(Br)c(c56)CC4N(C)C3)(C(C)C)C(=O)N12` (some centres not stated), for which the figures for the EC50 (on Protein RecA; in [2]; on Mu-type opioid receptor) were > 380 µM (inactive), 0.0038 µM (active) and 92.5 µM (inactive), respectively. In data set [8], the AC50 is > 380 µM (inactive).

As to `CCS(=O)(=O)N1CCC(C(=O)NCCCN2CCN(c3ccccc3F)CC2)CC1`, the AC50 on Cytochrome P450 1A2 was 1.26 µM (inconclusive); at Cytochrome P450 2D6, 15.8 µM (inconclusive); at Cytochrome P450 2C9 it was “inconclusive”; on Cytochrome P450 2C19 it was “inconclusive”. In addition, the EC50 in data set [2] was 76.1 µM (inactive); at Mu-type opioid receptor it was 92.5 µM (inactive).

For the compound `Cc1ccc2[nH]c(C(=O)N3CCN(C(c4ccccc4)c4ccccc4)CC3)cc2c1`, the IC50 at Beta-galactosidase is > 80 µM (inactive).

Source of the values: ChEMBL document CHEMBL1201862, “PubChem BioAssay data set” (2004).
